Experiment [1] addresses human (h)CD73 (amino acids Trp27-Lys547) (Homo sapiens, UniProt P21589). In words: CD73 inhibition assay (Malachite Green phosphate detection). Type of experiment: biochemical. The conditions noted are these: 250 pM hCD73, 12.5 μM AMP, 20 min pre-incubation, absorbance 620 nm. Here is the method: Compound inhibition of human (h)CD73 (amino acids Trp27-Lys547, R&D Systems 5795-EN-500) enzymatic activity was tested via the Malachite Green Phosphate Detection Kit (R&D DY996). Experiments were performed in 20 μL Tris buffer (25 mM Tris pH 7.5, 5 mM MgCl2, 0.002% Tween20), with 250 pM of hCD73. Test compounds of interest were prepared in a threefold serial dilution in DMSO and added to the assay to give the appropriate final concentration, with the assay DMSO concentration being 1%. Compounds were pre-incubated for 20 minutes with hCD73 in a 384 well clear plate (Greiner 781101), followed by the addition of adenosine monophosphate (AMP) to 12.5 μM. The enzymatic reaction was carried out for 20 min at room temperature. 5 μL of Malachite kit reagent A was added to stop the reaction (contains 3M H2SO4) and after 10 min, 5 μL of Malachite kit reagent B was added (Malachite Green). After 30 min, absorbance at 620 nm was read on a BMG Pherastar FSX.
Data were normalised to measurements in the absence of competing compound (0% inhibition) and in the presence of 10 μM control compound (100% inhibition).

Experiment [2] concerns the target CD73 activity in U138-MG cells (Homo sapiens (Human), UniProt P21589). In words: U138-MG inhibition assay (inorganic phosphate from AMP, PiColorLock Gold). Type of experiment: cell-based. The following applies: 100 μM AMP, 30 min pre-incubation, 1 hour at 37° C. Here is the method:
U138-MG cells from ATCC are cultured in DMEM (Gibco 31966) with 10% FBS. Cells are seeded into 96-well culture plates (5,000 cell/well) in 100 μL of media for 24 hr. Cells are washed twice with 200 μL of assay buffer (20 mM HEPES, pH 7.4; 137 mM NaCl; 5.4 mM KCl; 1.3 mM CaCl2; 4.2 mM NaHCO3; 1 mg/mL glucose) to remove residual inorganic phosphate. CD73 inhibitor is added to each well in 100 μl volume and preincubated for 30 mins at 37° C. An equal volume of AMP substrate (Sigma A1572) is added to each well at a final concentration of 100 μM and incubated at 37° C. for 1 hour. Control wells containing cells but lacking added AMP, define the assay signal equivalent to 100% inhibition of CD73 activity. Supernatant is removed for measurement of inorganic phosphate using the PiColorLock Gold kit (Abcam, ab 270004).
The IC50 values of test compounds are determined as the inflection point of the sigmoidal concentration response curve.

The target of experiment [3] is CD73 in whole blood (Homo sapiens (Human), UniProt P21589). In words: Whole blood AMP Glo assay. Type of experiment: cell-based. The conditions noted are these: whole blood of healthy volunteers, 10 μM AMP, 30 min pre-incubation, 15 min at 37° C., levamisole 1.5 mM. The protocol:
Blood is drawn from healthy volunteers by venepuncture and anti-coagulated with Lithium Heparin (10 IU/mi). 150 μl of blood is added to U-bottom polypropylene 96-well assay plates pre-filled with 20 μl of compound dilutions prepared in RPMI also containing the Tissue Non-specific Alkaline Phosphatase inhibitor Levamisole (final assay concentration 1.5 mM). Control wells to define uninhibited CD73 contain DMSO in place of compound. Control wells to define complete stabilization of AMP attributable to CD73 contain LY3475070 (CAS: 2375815-63-5) at 30 μM final assay concentration.
Compounds are pre-incubated with whole blood at 37° C. for 30 minutes. Following this, AMP is added in a 30 μl volume for a final assay concentration of 10 μM, mixed, and the plates are incubated for 15 minutes at 37° C. Final DMSO concentration/well is 0.6% and final volume/well is 200 μL. After incubating with AMP, the plates are placed on ice and then centrifuged at 2000 g for 10 minutes at 4° C. Plasma is removed and then diluted 1:10 with pre-chilled HBSS (Ca2+& Mg2+free) and kept on ice.
The stabilized AMP concentration in diluted plasma is measured using AMP-Glo kit (Promega), in parallel with a standard curve of known AMP concentrations, with a final volume of 40 μl in white flat bottom half-well 96-well plates (Corning). Signal is measured by Luminescence. The IC50 values of test compounds are determined as the inflection point of the sigmoidal concentration response curve.

Experimental findings from patent US20250340565A1, “CD73 INHIBITOR COMPOUNDS” (AdoRx Therapeutics Limited, priority 2022, published 2025) are described below.

Where a name gives a salt, the structure may show the parent alone.

For orientation: IC50 means the point on the concentration scale where inhibition reaches its midpoint.

Sequence of CD73 in whole blood (P21589 27-574): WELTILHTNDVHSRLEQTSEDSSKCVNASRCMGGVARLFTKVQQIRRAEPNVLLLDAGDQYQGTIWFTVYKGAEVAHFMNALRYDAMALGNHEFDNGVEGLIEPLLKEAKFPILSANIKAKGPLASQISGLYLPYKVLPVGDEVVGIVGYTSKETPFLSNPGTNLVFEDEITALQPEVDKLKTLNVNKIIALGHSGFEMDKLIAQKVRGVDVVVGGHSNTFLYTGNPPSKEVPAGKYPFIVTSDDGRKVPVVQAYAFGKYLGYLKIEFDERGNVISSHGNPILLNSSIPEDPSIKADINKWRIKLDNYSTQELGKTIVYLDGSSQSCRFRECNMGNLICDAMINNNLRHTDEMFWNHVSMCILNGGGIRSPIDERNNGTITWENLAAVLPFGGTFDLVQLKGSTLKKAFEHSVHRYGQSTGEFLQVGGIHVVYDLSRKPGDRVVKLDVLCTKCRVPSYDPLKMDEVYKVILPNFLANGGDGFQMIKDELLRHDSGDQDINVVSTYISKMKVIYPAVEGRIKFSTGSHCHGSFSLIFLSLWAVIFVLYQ
Sequence of CD73 activity in U138-MG cells (P21589 27-574): as above

With `O=c1[nH]cc(-c2cc3c(N4CCC(OCCN5CCCCC5)C4)ncnn3c2)c(=O)[nH]1` (stereo not drawn) [Example 10, 5-[4-[3-[2-(1-Piperidyl)ethoxy]pyrrolidin-1-yl]pyrrolo[2,1-f][1,2,4]triazin-6-yl]pyrimidine-2,4-diol], the IC50 in experiment [1] came to 20.7 nM; in experiment [2], 51.9 nM; in experiment [3] it was 29.6 nM.

In the case of `O=c1[nH]cc(-c2cc3c(N4CCC(OCCN5CCC(F)(F)CC5)C4)ncnn3c2)c(=O)[nH]1` (stereo not drawn) [Example 10.1, 5-[4-[3-[2-(4,4-Difluoro-1-piperidyl)ethoxy]pyrrolidin-1-yl]pyrrolo[2,1-f][1,2,4]triazin-6-yl]-1H-pyrimidine-2,4-dione], the IC50 in experiment [1] was 85.4 nM; in experiment [2], 61.1 nM; in experiment [3], 50.1 nM.

On to `CC1(C)CN(c2ncnn3cc(-c4c[nH]c(=O)[nH]c4=O)cc23)CC1(F)F` [Example 10.2, 5-[4-(3,3-Difluoro-4,4-dimethyl-pyrrolidin-1-yl)pyrrolo[2,1-f][1,2,4]triazin-6-yl]-1H-pyrimidine-2,4-dione], for which the IC50 in experiment [1] amounted to 130 nM; in experiment [2], 312 nM; in experiment [3], 1590 nM.

Regarding `N#Cc1cnc2sc(-c3c[nH]c(=O)[nH]c3=O)cc2c1N1CCC(OCCN2CCCCC2)C1` (stereo not drawn) [Example 11, 2-(2,4-Dioxo-1H-pyrimidin-5-yl)-4-[3-[2-(1-piperidyl)ethoxy]pyrrolidin-1-yl]thieno[2,3-b]pyridine-5-carbonitrile], the half-inhibitory concentration (IC50) in experiment [1] was found to be 103 nM; in experiment [2], 246 nM; in experiment [3], 686 nM.

Turning to `O=c1[nH]cc(-n2cc3c(N4CCC(OCCN5CCCCC5)C4)ncnc3n2)c(=O)[nH]1` (stereo not drawn) [Example 12, 5-[4-[3-[2-(1-Piperidyl)ethoxy]pyrrolidin-1-yl]pyrazolo[3,4-d]pyrimidin-2-yl]-1H-pyrimidine-2,4-dione hydrochloride], the IC50 in experiment [1] turned out to be 33.7 nM; in experiment [2] it was 2.7 nM; in experiment [3] it was 0.6 nM.

Take `CC1(C)CN(c2ncnc3nn(-c4c[nH]c(=O)[nH]c4=O)cc23)CC1(F)F` [Example 13, 5-[4-(3,3-Difluoro-4,4-dimethyl-pyrrolidin-1-yl)pyrazolo[3,4-d]pyrimidin-2-yl]-1H-pyrimidine-2,4-dione]: the values for the IC50 in experiment [1], in experiment [2] and in experiment [3] were 44.8 nM, 1.8 nM and 0.47 nM, respectively.

Turning to `O=c1[nH]cc(-n2cc3c(N4CC(F)(F)C5(CC5)C4)ncnc3n2)c(=O)[nH]1` [Example 13.1, 5-[4-(7,7-Difluoro-5-azaspiro[2.4]heptan-5-yl)pyrazolo[3,4-d]pyrimidin-2-yl]-1H-pyrimidine-2,4-dione], the IC50 came out at 37.1 nM in experiment [1], 2.4 nM in experiment [2] and 1.15 nM in experiment [3].

Turning to `O=c1[nH]cc(-n2cc3c(N4CC(F)(F)C5(CCC5)C4)ncnc3n2)c(=O)[nH]1` [Example 13.2, 5-[4-(8,8-Difluoro-6-azaspiro[3.4]octan-6-yl)pyrazolo[3,4-d]pyrimidin-2-yl]-1H-pyrimidine-2,4-dione], the figures for the half-maximal inhibitory concentration (IC50) in experiment [1], in experiment [2] and in experiment [3] were 60.7 nM, 2.1 nM and 1.13 nM, respectively.

Take `O=c1[nH]cc(-n2cc3c(N4CC(F)(F)C5(CCCC5)C4)ncnc3n2)c(=O)[nH]1` [Example 13.3, 5-[4-(4,4-Difluoro-2-azaspiro[4.4]nonan-2-yl)pyrazolo[3,4-d]pyrimidin-2-yl]-1H-pyrimidine-2,4-dione]: the concentration for half-maximal inhibition (IC50) is 124 nM in experiment [1], 4.5 nM in experiment [2] and 3.52 nM in experiment [3].

`O=c1[nH]cc(-n2cc3c(N4C[C@H]5CCC[C@H]5C4)ncnc3n2)c(=O)[nH]1` [Example 13.4, 5-[4-[(3aR,6aS)-3,3a,4,5,6,6a-Hexahydro-1H-cyclopenta[c]pyrrol-2-yl]pyrazolo[3,4-d]pyrimidin-2-yl]-1H-pyrimidine-2,4-dione]: the IC50 in experiment [1] came to 95 nM; in experiment [2] it was 35.3 nM; in experiment [3], 14.1 nM.

As for `CCC1(C)CCN(c2ncnc3nn(-c4c[nH]c(=O)[nH]c4=O)cc23)C1` (stereo not drawn) [Example 13.5, 5-[4-(3-Ethyl-3-methyl-pyrrolidin-1-yl)pyrazolo[3,4-d]pyrimidin-2-yl]-1H-pyrimidine-2,4-dione], the IC50 in experiment [1] was determined as 84.7 nM; in experiment [2] it was 10.5 nM; in experiment [3], 2.12 nM.

Regarding `CC1(C)CCN(c2ncnc3nn(-c4c[nH]c(=O)[nH]c4=O)cc23)C1` [Example 13.6, 5-[4-(3,3-Dimethylpyrrolidin-1-yl)pyrazolo[3,4-d]pyrimidin-2-yl]-1H-pyrimidine-2,4-dione], the figures for the IC50 in experiment [1], in experiment [2] and in experiment [3] were 31.1 nM, 8.6 nM and 1.19 nM, respectively.

For `CCC1(CC)CCN(c2ncnc3nn(-c4c[nH]c(=O)[nH]c4=O)cc23)C1` [Example 13.7, 5-[4-(3,3-Diethylpyrrolidin-1-yl)pyrazolo[3,4-d]pyrimidin-2-yl]-1H-pyrimidine-2,4-dione], the 50% inhibitory concentration (IC50) was 73.9 nM in experiment [1], 20.9 nM in experiment [2] and 7.58 nM in experiment [3].

As for `O=c1[nH]cc(-n2cc3c(N4CC(F)(F)C(F)(F)C4)ncnc3n2)c(=O)[nH]1` [Example 13.8, 5-[4-(3,3,4,4-Tetrafluoropyrrolidin-1-yl)pyrazolo[3,4-d]pyrimidin-2-yl]-1H-pyrimidine-2,4-dione], the figures for the half-inhibitory concentration (IC50) in experiment [1], in experiment [2] and in experiment [3] were 47.6 nM, 12.1 nM and 1.5 nM, respectively.

Regarding `O=c1[nH]cc(-n2cc3c(N4C[C@H]5COC[C@H]5C4)ncnc3n2)c(=O)[nH]1` [Example 13.9, 5-[4-[(3aR,6aS)-1,3,3a,4,6,6a-Hexahydrofuro[3,4-c]pyrrol-5-yl]pyrazolo[3,4-d]pyrimidin-2-yl]-1H-pyrimidine-2,4-dione], the half-maximal inhibitory concentration (IC50) in experiment [1] is 303 nM; in experiment [2], 49.2 nM; in experiment [3] it was 5.5 nM.

Consider `COC1CN(c2ncnc3nn(-c4c[nH]c(=O)[nH]c4=O)cc23)CC1(F)F` (stereo not drawn) [Example 13.11, 5-[4-(3,3-Difluoro-4-methoxy-pyrrolidin-1-yl)pyrazolo[3,4-d]pyrimidin-2-yl]-1H-pyrimidine-2,4-dione], for which the figures for the IC50 in experiment [1], in experiment [2] and in experiment [3] were 49.2 nM, 3.2 nM and 1.5 nM, respectively.

On to `O=c1[nH]cc(-c2cc3c(N4CCC(OCCN5CCCCC5)C4)ccnc3s2)c(=O)[nH]1` (stereo not drawn) [Example 14, 5-[4-[3-[2-(1-Piperidyl)ethoxy]pyrrolidin-1-yl]thieno[2,3-b]pyridin-2-yl]-1H-pyrimidine-2,4-dione], for which the IC50 in experiment [1] was found to be 62.8 nM; in experiment [2], 177 nM; in experiment [3], 549 nM.

With `O=c1[nH]cc(-c2nc3c(N4CCC(OCCN5CCCCC5)C4)ncnc3[nH]2)c(=O)[nH]1` (stereo not drawn) [Example 15, 5-[6-[3-[2-(1-Piperidyl)ethoxy]pyrrolidin-1-yl]-9H-purin-8-yl]-1H-pyrimidine-2,4-dione], the IC50 in experiment [1] worked out at 139 nM; in experiment [2], 65.6 nM; in experiment [3], 56.5 nM.

Turning to `O=c1[nH]cc(-c2cc3nccc(N4CCC(OCCN5CCCCC5)C4)c3s2)c(=O)[nH]1` (stereo not drawn) [Example 16, 5-[7-[3-[2-(1-Piperidyl)ethoxy]pyrrolidin-1-yl]thieno[3,2-b]pyridin-2-yl]-1H-pyrimidine-2,4-dione], the results for the IC50 in experiment [1], in experiment [2] and in experiment [3] were 297 nM, 1340 nM and 1550 nM, respectively.
